The values that follow are results of earlier work, collected in paper PMC3629230, “Permeability Enhancers Dramatically Increase Zanamivir Absolute Bioavailability in Rats: Implications for an Orally Bioavailable Influenza Treatment” (PLoS ONE, 2013).

In one series the test system is flu strains. Conditions: cited from earlier work.
A further series concerns seasonal H1N1. Further details: method as in earlier work. To be noted: 2009 tests; cited from earlier work.
In a further series the test system is pandemic flu strains. Further details: method as in earlier work. Conditions: 2009 tests; cited from earlier work.

Consider `CC(=O)N[C@H]1[C@H]([C@H](O)[C@H](O)CO)OC(C(=O)O)=C[C@@H]1N=C(N)N` [Zanamivir, zanamivir], for which, in the series on flu strains, the Resistance entry is “has not been observed”.

As to `CCOC(=O)C1=C[C@@H](OC(CC)CC)[C@H](NC(C)=O)[C@@H](N)C1` [oseltamivir], the values for the Strains resistant in the series with seasonal H1N1 and in the series on pandemic flu strains were 99.6% and 0.5%, respectively.
